Test results from patent US10058495B2, “Method of making a skin care product” (The Procter & Gamble Company, priority 2014, dated 2018).
Residues, ends and D or L forms follow the SMILES beside them. *: point of attachment. Palmitoyl = CCCCCCCCCCCCCCCC(=O)*

Test: In vivo skin penetration study #1 (Tape Stripping method), magnetic array vs finger
Parameters: species or system human
Conditions: for combined amount of Pal-KTTKS on tape strips, Mean: mean of the three strip groups; for combined amount of Pal-KTTKS on tape strips, Mean / combined amount of Pal-KTTKS on tape strips: in ng; for delivery of Pal-KTTKS, active compared to passive application: three test subjects
Procedure: An in vivo skin penetration study was conducted to establish the effect of using a skin care product of the present invention by applying a skin care composition comprising Pal-KTTKS (SEQ ID NO: 1) with an applicator comprising a magnetic array. The study compared the penetration of the Pal-KTTKS (SEQ ID NO: 1) in combination with a variety of magnetic arrays (active application) to the penetration of Pal-KTTKS (SEQ ID NO: 1) applied with a finger (passive application). Penetration of Pal-KTTKS (SEQ ID NO: 1) in this example is determined according to the Tape Stripping method. In this example, the level of Pal-KTTKS (SEQ ID NO: 1) present in the extract from each tape strip was measured using HPLC and the results normalized to the protein level measured on the tape strip.
This method provides a suitable means of measuring the amount of skin care active present in skin, and comparing active versus passive application of the skin care active. Two identical rectangular areas of 15 cm^2 are marked on the volar forearms of volunteers. A measured dose (approximately 30 mg) of the Pal-KTTKS (SEQ ID NO: 1) formulation is applied to the delineated areas using a screw actuated syringe. Active application is carried out on one of the delineated areas using the three-quarter profile of a purpose made applicator (e.g., an applicator presenting one of the magnetic arrays set forth in Table 2). Passive application is accomplished on the other delineated area using the tip of a finger in a sweeping motion identical to that of the active application. The formulation is spread evenly across the entire delineated region using a sweeping motion with a fixed speed of approximately 23 cm/s to […]. The application period is 30 seconds during which time visual inspection is used to ensure even distribution and absorption of the formulation by skin. The application area is then left uncovered for a further 30 minutes to ensure complete absorption. Tape strip samples may be collected and/or analyzed immediately after the complete absorption is ensured or after a waiting period (e.g., after multiple applications of the formulation over multiple hours or days).
The tape stripping procedure is carried out using 10 commercial pre-cut 22.1 mm tape stripping adhesive discs (e.g., D-SQUAME, available from Cuderm Corporation or equivalent) with an adhesive area of 3.8 cm^2. The 10 tape strips are applied sequentially to the same sampling site, which ideally enables each tape strip to obtain a sample from deeper within the stratum corneum than the tape strip that preceded it. A 22.1 mm diameter circular region is marked at the center of the application area. A tape stripping adhesive disc is placed over the marked area and even pressure applied using, for example, a neoprene roller, rolled ten times over the adhesive disc. The adhesive disc is removed from the skin surface in a single pulling motion using manual tweezers. To ensure even removal of the skin sample, subsequent discs are removed in a “north, south, east and west” orientation, which is within the skill of the ordinary artisan. Each adhesive disc is non-destructively analysed for protein content using a suitable instrument (e.g., SquameScan™ 850 instrument commercially available from Heiland Electronics Wetzlar, Germany, or equivalent). The adhesive disc is then immediately placed into a glass vial containing extraction solvent in preparation for subsequent analysis. Solvent extractions are conducted on each tape strip using conventional extraction methods, which are well known to those of ordinary skill in the art, and measuring the amount of Pal-KTTKS (SEQ ID NO: 1) present in the extract, for example, by high performance liquid chromatography (“HPLC”) and/or mass spectrometry.
The procedure is repeated for the remaining nine strips. An additional strip is obtained from outside the area of application of the skin care formulation to serve as a blank sample. […]

combined amount of Pal-KTTKS on tape strips, Mean (array 4, active, Average): 102.11 | combined amount of Pal-KTTKS on tape strips, Mean (array 4, active, subject 1, 1st test): 144.79 | combined amount of Pal-KTTKS on tape strips, Mean (array 4, active, subject 1, 2nd test): 96.97 | combined amount of Pal-KTTKS on tape strips, Mean (array 4, active, subject 2, 1st test): 122.02 | combined amount of Pal-KTTKS on tape strips, Mean (array 4, active, subject 2, 2nd test): 78.21 | combined amount of Pal-KTTKS on tape strips, Mean (array 4, active, subject 3 (2nd test of Table 7)): 68.57 | combined amount of Pal-KTTKS on tape strips (array 4, active, strips 2-4, Average): 108.81 | combined amount of Pal-KTTKS on tape strips (array 4, active, strips 2-4, subject 1, 1st test): 158.48 | combined amount of Pal-KTTKS on tape strips (array 4, active, strips 2-4, subject 1, 2nd test): 82.45 | combined amount of Pal-KTTKS on tape strips (array 4, active, strips 2-4, subject 2, 1st test): 129.33 | combined amount of Pal-KTTKS on tape strips (array 4, active, strips 2-4, subject 2, 2nd test): 94.10 | combined amount of Pal-KTTKS on tape strips (array 4, active, strips 2-4, subject 3 (2nd test of Table 7)): 79.66 | combined amount of Pal-KTTKS on tape strips (array 4, active, strips 5-7, Average): 107.95 | combined amount of Pal-KTTKS on tape strips (array 4, active, strips 5-7, subject 1, 1st test): 154.85 | combined amount of Pal-KTTKS on tape strips (array 4, active, strips 5-7, subject 1, 2nd test): 117.42 | combined amount of Pal-KTTKS on tape strips (array 4, active, strips 5-7, subject 2, 1st test): 121.51 | combined amount of Pal-KTTKS on tape strips (array 4, active, strips 5-7, subject 2, 2nd test): 73.41 | combined amount of Pal-KTTKS on tape strips (array 4, active, strips 5-7, subject 3 (2nd test of Table 7)): 72.59 | combined amount of Pal-KTTKS on tape strips (array 4, active, strips 8-10, Average): 89.57 | combined amount of Pal-KTTKS on tape strips (array 4, active, strips 8-10, subject 1, 1st test): 121.04 | combined amount of Pal-KTTKS on tape strips (array 4, active, strips 8-10, subject 1, 2nd test): 91.03 | combined amount of Pal-KTTKS on tape strips (array 4, active, strips 8-10, subject 2, 1st test): 115.22 | combined amount of Pal-KTTKS on tape strips (array 4, active, strips 8-10, subject 2, 2nd test): 67.12 | combined amount of Pal-KTTKS on tape strips (array 4, active, strips 8-10, subject 3 (2nd test of Table 7)): 53.45 | combined amount of Pal-KTTKS on tape strips, Mean (array 9, active, average of subjects): 165.57 | combined amount of Pal-KTTKS on tape strips, Mean (array 9, active, subject 1): 154.29 | combined amount of Pal-KTTKS on tape strips, Mean (array 9, active, subject 2): 201.48 | combined amount of Pal-KTTKS on tape strips, Mean (array 9, active, subject 3): 140.93 | combined amount of Pal-KTTKS on tape strips (array 9, active, strips 2-4, average of subjects): 263.02 | combined amount of Pal-KTTKS on tape strips (array 9, active, strips 2-4, subject 1): 177.13 | combined amount of Pal-KTTKS on tape strips (array 9, active, strips 2-4, subject 2): 440.14 | combined amount of Pal-KTTKS on tape strips (array 9, active, strips 2-4, subject 3): 171.79 | combined amount of Pal-KTTKS on tape strips (array 9, active, strips 5-7, average of subjects): 120.01 | combined amount of Pal-KTTKS on tape strips (array 9, active, strips 5-7, subject 1): 131.72 | combined amount of Pal-KTTKS on tape strips (array 9, active, strips 5-7, subject 2): 100.02 | combined amount of Pal-KTTKS on tape strips (array 9, active, strips 5-7, subject 3): 128.29 | combined amount of Pal-KTTKS on tape strips (array 9, active, strips 8-10, average of subjects): 113.67 | combined amount of Pal-KTTKS on tape strips (array 9, active, strips 8-10, subject 1): 154.03 | combined amount of Pal-KTTKS on tape strips (array 9, active, strips 8-10, subject 2): 64.27 | combined amount of Pal-KTTKS on tape strips (array 9, active, strips 8-10, subject 3): 122.70 | delivery of Pal-KTTKS, active compared to passive application (bi-directional magnetic array #9): significant enhanced delivery | combined amount of Pal-KTTKS on tape strips, Mean (passive, comparator of array 4, Average): 50.00 | combined amount of Pal-KTTKS on tape strips, Mean (passive, comparator of array 4, subject 1, 1st test): 59.18 | combined amount of Pal-KTTKS on tape strips, Mean (passive, comparator of array 4, subject 1, 2nd test): 42.29 | combined amount of Pal-KTTKS on tape strips, Mean (passive, comparator of array 4, subject 2, 1st test): 52.85 | combined amount of Pal-KTTKS on tape strips, Mean (passive, comparator of array 4, subject 2, 2nd test): 23.30 | combined amount of Pal-KTTKS on tape strips, Mean (passive, comparator of array 4, subject 3 (2nd test of Table 8)): 72.39 | combined amount of Pal-KTTKS on tape strips (passive, comparator of array 4, strips 2-4, Average): 70.42 | combined amount of Pal-KTTKS on tape strips (passive, comparator of array 4, strips 2-4, subject 1, 1st test): 79.94 | combined amount of Pal-KTTKS on tape strips (passive, comparator of array 4, strips 2-4, subject 1, 2nd test): 69.89 | combined amount of Pal-KTTKS on tape strips (passive, comparator of array 4, strips 2-4, subject 2, 1st test): 86.09 | combined amount of Pal-KTTKS on tape strips (passive, comparator of array 4, strips 2-4, subject 2, 2nd test): 28.02 | combined amount of Pal-KTTKS on tape strips (passive, comparator of array 4, strips 2-4, subject 3 (2nd test of Table 8)): 88.18 | combined amount of Pal-KTTKS on tape strips (passive, comparator of array 4, strips 5-7, Average): 49.50 | combined amount of Pal-KTTKS on tape strips (passive, comparator of array 4, strips 5-7, subject 1, 1st test): 65.58 | combined amount of Pal-KTTKS on tape strips (passive, comparator of array 4, strips 5-7, subject 1, 2nd test): 35.35 | combined amount of Pal-KTTKS on tape strips (passive, comparator of array 4, strips 5-7, subject 2, 1st test): 46.95 | combined amount of Pal-KTTKS on tape strips (passive, comparator of array 4, strips 5-7, subject 2, 2nd test): 23.11 | combined amount of Pal-KTTKS on tape strips (passive, comparator of array 4, strips 5-7, subject 3 (2nd test of Table 8)): 76.52 | combined amount of Pal-KTTKS on tape strips (passive, comparator of array 4, strips 8-10, Average): 30.08 | combined amount of Pal-KTTKS on tape strips (passive, comparator of array 4, strips 8-10, subject 1, 1st test): 32.01 | combined amount of Pal-KTTKS on tape strips (passive, comparator of array 4, strips 8-10, subject 1, 2nd test): 21.64 | combined amount of Pal-KTTKS on tape strips (passive, comparator of array 4, strips 8-10, subject 2, 1st test): 25.51 | combined amount of Pal-KTTKS on tape strips (passive, comparator of array 4, strips 8-10, subject 2, 2nd test): 18.76 | combined amount of Pal-KTTKS on tape strips (passive, comparator of array 4, strips 8-10, subject 3 (2nd test of Table 8)): 52.45 | combined amount of Pal-KTTKS on tape strips, Mean (passive, comparator of array 9, average of subjects): 47.80 | combined amount of Pal-KTTKS on tape strips, Mean (passive, comparator of array 9, subject 1): 42.29 | combined amount of Pal-KTTKS on tape strips, Mean (passive, comparator of array 9, subject 2): 28.71 | combined amount of Pal-KTTKS on tape strips, Mean (passive, comparator of array 9, subject 3): 72.39 | combined amount of Pal-KTTKS on tape strips (passive, comparator of array 9, strips 2-4, average of subjects): 62.79 | combined amount of Pal-KTTKS on tape strips (passive, comparator of array 9, strips 2-4, subject 1): 69.89 | combined amount of Pal-KTTKS on tape strips (passive, comparator of array 9, strips 2-4, subject 2): 30.29 | combined amount of Pal-KTTKS on tape strips (passive, comparator of array 9, strips 2-4, subject 3): 88.18 | combined amount of Pal-KTTKS on tape strips (passive, comparator of array 9, strips 5-7, average of subjects): 50.50 | combined amount of Pal-KTTKS on tape strips (passive, comparator of array 9, strips 5-7, subject 1): 35.35 | combined amount of Pal-KTTKS on tape strips (passive, comparator of array 9, strips 5-7, subject 2): 39.62 | combined amount of Pal-KTTKS on tape strips (passive, comparator of array 9, strips 5-7, subject 3): 76.52 | combined amount of Pal-KTTKS on tape strips (passive, comparator of array 9, strips 8-10, average of subjects): 30.11 | combined amount of Pal-KTTKS on tape strips (passive, comparator of array 9, strips 8-10, subject 1): 21.64 | combined amount of Pal-KTTKS on tape strips (passive, comparator of array 9, strips 8-10, subject 2): 16.23 | combined amount of Pal-KTTKS on tape strips (passive, comparator of array 9, strips 8-10, subject 3): 52.45 | delivery of Pal-KTTKS, active compared to passive application (uni-directional magnetic array #4): significant enhanced delivery
SMILES: CCCCCCCCCCCCCCCC(=O)N[C@@H](CCCCN)C(=O)N[C@H](C(=O)N[C@H](C(=O)N[C@@H](CCCCN)C(=O)N[C@@H](CO)C(=O)O)[C@@H](C)O)[C@@H](C)O [Pal-KTTKS, palmitoyl-lysine-threonine-threonine-lysine-serine] (Palmitoyl-KTTKS-OH; C-terminus assumed)
